How the values were obtained:
Plasmodium falciparum [1] = experiment: Antimalarial activity after 72 hrs against chloroquine-resistant Plasmodium falciparum W2 infected human A+ erythrocytes by Makler LDH reporter assay; type: functional, organism-based; conditions: W2, 72 h
[2] = molecular target: T1, Histidine-rich protein PFHRP-II (Plasmodium falciparum) (UniProt P05227); experiment: Inhibition of beta-hematin assessed as molar equivalents at pH 2.7 after 18 hrs by spectrophotometric microassay relative to hemin; type: functional
T1 sequence (whole entry): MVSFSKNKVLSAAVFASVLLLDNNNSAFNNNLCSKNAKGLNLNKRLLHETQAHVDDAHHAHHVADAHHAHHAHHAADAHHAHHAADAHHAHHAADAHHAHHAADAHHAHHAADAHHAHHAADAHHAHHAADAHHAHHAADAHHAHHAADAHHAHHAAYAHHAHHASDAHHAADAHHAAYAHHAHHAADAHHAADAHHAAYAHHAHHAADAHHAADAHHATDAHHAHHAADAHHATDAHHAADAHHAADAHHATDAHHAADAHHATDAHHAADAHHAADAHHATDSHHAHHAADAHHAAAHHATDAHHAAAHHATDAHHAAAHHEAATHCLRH

Plasmodium chabaudi = experiment: Antimalarial activity as reduced parasitaemia against Plasmodium chabaudi AS infected CD1 mice (Mus musculus) at 50 mg/kg/day peroral dose; type: functional; design: scale not given: the % may be the effect or the level left; conditions: route oral
Plasmodium berghei = experiment: Antimalarial activity as reduced parasitaemia against Plasmodium berghei ANKA infected CD1 mice (Mus musculus) at 30 mg/kg/day intraperitoneal dose over 4 days; type: functional; design: scale not given: the % may be the effect or the level left
Plasmodium falciparum [3] = experiment: Antimalarial activity after 24 hrs against chloroquine-resistant synchronous Plasmodium falciparum K1 infected human A+ erythrocytes by [3H]hypoxanthine uptake; type: functional, organism-based
Plasmodium falciparum [4] = experiment: Antimalarial activity after 24 hrs against chloroquine-sensitive Plasmodium falciparum 3D7 infected human A+ erythrocytes by [3H]hypoxanthine uptake; type: functional, organism-based
Plasmodium falciparum [5] = experiment: Antimalarial activity after 72 hrs against chloroquine-sensitive Plasmodium falciparum D10 infected human A+ erythrocytes in Makler LDH reporter assay; type: functional, organism-based; conditions: D10, 72 h
Plasmodium falciparum [6] = experiment: Antimalarial activity after 48 hrs against chloroquine-resistant asynchronous Plasmodium falciparum K1 infected human A+ erythrocytes by [3H]hypoxanthine uptake; type: functional, organism-based
Plasmodium falciparum [7] = experiment: Antimalarial activity after 48 hrs against chloroquine-sensitive Plasmodium falciparum NF54 infected human A+ erythrocytes by [3H]hypoxanthine uptake; type: functional, organism-based
[8] = Cytotoxicity against human Daudi cells by MTT assay; type: cell-based; conditions: read-out: TC50 (the source's name)
[9] = Cytotoxicity against mouse NSO cells by MTT assay; type: cell-based; conditions: read-out: TC50 (the source's name)
[10] = Cytotoxicity against PHA-stimulated human lymphocytes by MTT assay; type: cell-based, Lymphocyte; conditions: read-out: TC50 (the source's name)
[11] = Apparent volume of distribution in CD-COBS rat at 5 mg/kg, iv; type: ADME, organism-based; design: dose 5 mg/kg, route intravenous; conditions: in vivo
[12] = Cytotoxicity against human KB cells by MTT assay; type: cell-based; conditions: read-out: TC50 (the source's name)
[13] = Elimination half life in CD-COBS rat at 5 mg/kg, iv; type: ADME, organism-based; design: dose 5 mg/kg, route intravenous; conditions: in vivo

Row | SMILES | IC50 (Plasmodium falciparum [1]) [µM] | Ratio [2] | Activity (Plasmodium chabaudi) [%] | Activity (Plasmodium berghei) [%] | IC50 (Plasmodium falciparum [3]) [µM] | IC50 (Plasmodium falciparum [4]) [µM] | IC50 (Plasmodium falciparum [5]) [µM] | IC50 (Plasmodium falciparum [6]) [µM] | IC50 (Plasmodium falciparum [7]) [µM] | CC50 [8] [µM] | CC50 [9] [µM] | CC50 [10] [µM] | Vd [11] [L/kg] | CC50 [12] [µM] | half-life [13] [min]
1 | Clc1ccc([C@](c2ccccc2)(c2ccc(CN3CCCC3)cc2)n2ccnc2)cc1 | 0.059 | 2.5 | 94.8 | 37.6 | 0.005 | 0.007 | 0.13 |  |  |  |  |  |  |  | 
2 | COc1ccc2nc3cc(Cl)ccc3c(NC(c3ccc(Cl)cc3)(c3ccc(Cl)cc3)c3ccc(CN4CCCC4)cc3)c2c1 | 0.149 |  |  |  |  |  | 0.143 | 0.199 | 0.135 |  |  |  |  |  | 
3 | Clc1ccc(C(Nc2ccnc3cc(Cl)ccc23)(c2ccc(Cl)cc2)c2ccc(CN3CCCC3)cc2)cc1 | 0.056 |  |  |  |  |  | 0.048 | 0.028 | 0.016 |  |  |  |  |  | 
4 | COc1ccc2nccc(NC(c3ccc(CN4CCCC4)cc3)c3cccc(Cl)c3)c2c1 (racemic) | 0.055 |  |  |  |  |  | 0.04 | 0.065 | 0.039 |  |  |  |  |  | 
5 | Clc1cccc(C(Nc2ccnc3cc(Cl)ccc23)c2ccc(CN3CCOCC3)cc2)c1 (racemic) | 0.22 |  |  |  |  |  | 0.142 | 0.062 | 0.043 |  |  |  |  |  | 
6 | COc1ccc2nccc(NC(c3ccc(CN4CCOCC4)cc3)c3cccc(Cl)c3)c2c1 (racemic) | 0.127 |  |  |  |  |  | 0.086 | 0.067 | 0.043 |  |  |  |  |  | 
7 | COc1ccc2nc3cc(Cl)ccc3c(NC(c3ccc(Cl)cc3)c3ccc(CN4CCCC4)cc3)c2c1 (racemic) | 0.059 |  | 99.9 |  | 0.008 | 0.001 | 0.049 | 0.02 | 0.019 | 11.1 | 11.1 | 16.6 |  |  | 
8 | Clc1ccc(C(Nc2ccnc3cc(Cl)ccc23)c2ccc(CN3CCOCC3)cc2)cc1 (racemic) | 0.084 |  |  |  |  |  | 0.087 | 0.021 | 0.019 |  |  |  |  |  | 
9 | Clc1ccc(C(Nc2ccnc3cc(Cl)ccc23)c2ccc(CN3CCCC3)cc2)cc1 (racemic) | 0.072 |  | 99.5 |  | 0.009 | 0.0037 | 0.046 | 0.014 | 0.013 | 8.6 | 8.6 | 17.3 | 40 | 19.6 | 44
